Legend:
[1] = biological target: mouse TAAR1 (Mus musculus (Mouse), UniProt Q923Y8); assay: Radioligand binding assay on mouse TAAR1; conditions: mouse TAAR1, membranes of stably transfected HEK-293 cells; first value of the pair; read-out: Ki (μM) mouse/rat: mouse
Procedure: (§1) For the construction of expression plasmids the coding sequences of human, rat and mouse TAAR 1 were amplified from genomic DNA essentially as described by Lindemann et al.. The Expand High Fidelity PCR System (Roche Diagnostics) was used with 1.5 mM Mg^2+ and purified PCR products were cloned into pCR2.1-TOPO cloning vector (Invitrogen) following the instructions of the manufacturer. PCR products were subcloned into the pIRESneo2 vector (BD Clontech, Palo Alto, Calif.), and expression vectors were sequence verified before introduction in cell lines.
(§2) For the generation of stably transfected cell lines HEK293 cells were transfected with the pIRESneo2 expression plasmids containing the TAAR coding sequences (described above) with Lipofectamine 2000 (Invitrogen) according to the instructions of the manufacturer, and 24 hrs post transfection the culture medium was supplemented with 1 mg/ml G418 (Sigma, Buchs, Switzerland). After a culture period of about 10 d clones were isolated, expanded and tested for responsiveness to trace amines (all compounds purchased from Sigma) with the cAMP Biotrak Enzyme immunoassay (EIA) System (Amersham) following the non-acetylation EIA procedure provided by the manufacturer.
Radioligand Binding Assay on Mouse TAAR1
(§3) Membrane Preparation and Radioligand Binding.
(§4) Cells were released from culture flasks using trypsin/EDTA, harvested, washed twice with ice-cold PBS (without Ca^2+ and Mg^2+), pelleted at 1,000 rpm for 5 min at 4° C., frozen and stored at −80° C. Frozen pellets were suspended in 20 ml HEPES-NaOH (20 mM, pH 7.4) containing 10 mM EDTA and homogenized with a Polytron (PT 6000, Kinematica) at 14′000 rpm for 20 s. The homogenate was centrifuged at 48,000×g for 30 min at 4° C. Subsequently, the supernatant was removed and discarded, and the pellet resuspended in 20 ml HEPES-NaOH (20 mM, pH 7.4) containing 0.1 mM EDTA using the Polytron (20 s at 14′000 rpm). This procedure was repeated and the final pellet resuspended in HEPES-NaOH containing 0.1 mM EDTA and homogenized using the Polytron. Typically, aliquots of 2 ml membrane portions were stored at −80° C. With each new membrane batch the dissociation constant (Kd) was determined via a saturation curve. […] Nonspecific binding was defined as the amount of ^3[H]—(S)-4-[(ethyl-phenyl-amino)-methyl]-4,5-dihydro-oxazol-2-ylamine bound in the presence of 10 μM unlabeled ligand. All compounds were tested at a broad range of concentrations (10 pM to 10 μM) in duplicates. […] The 96 deep well plates were incubated for 1 hr at 4° C. Incubations were terminated by rapid filtration through Unifilter-96 plates (Packard Instrument Company) and glass filters GF/C (Perkin Elmer) presoaked for 1 hr in polyethylenimine (0.3%) and washed 3 times with 1 ml of cold binding buffer. After addition of 45 μl of Microscint 40 (PerkinElmer) the Unifilter-96 plate was sealed and after 1 hr the radioactivity counted using a TopCount Microplate Scintillation Counter (Packard Instrument Company).

[2] = biological target: rat TAAR1 (Rattus norvegicus (Rat), UniProt Q923Y9); assay: Radioligand binding assay on rat TAAR1; conditions: rat TAAR1, membranes of stably transfected HEK-293 cells; second value of the pair; read-out: Ki (μM) mouse/rat: rat
Procedure: as §1, §2
Radioligand Binding Assay on Rat TAAR1
as §3
as §4, with “1′000” for “1,000”, “48′000×g” for “48,000×g”

Sequence of mouse TAAR1 (Q923Y8 whole entry): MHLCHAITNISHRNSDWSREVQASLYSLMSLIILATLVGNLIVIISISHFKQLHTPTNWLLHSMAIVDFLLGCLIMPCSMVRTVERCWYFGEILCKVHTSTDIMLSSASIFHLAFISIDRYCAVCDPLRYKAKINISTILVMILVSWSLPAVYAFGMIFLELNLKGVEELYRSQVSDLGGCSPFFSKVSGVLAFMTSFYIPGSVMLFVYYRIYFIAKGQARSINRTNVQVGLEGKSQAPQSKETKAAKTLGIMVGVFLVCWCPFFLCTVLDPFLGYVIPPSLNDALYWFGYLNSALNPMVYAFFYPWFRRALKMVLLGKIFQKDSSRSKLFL
Sequence of rat TAAR1 (Q923Y9 whole entry): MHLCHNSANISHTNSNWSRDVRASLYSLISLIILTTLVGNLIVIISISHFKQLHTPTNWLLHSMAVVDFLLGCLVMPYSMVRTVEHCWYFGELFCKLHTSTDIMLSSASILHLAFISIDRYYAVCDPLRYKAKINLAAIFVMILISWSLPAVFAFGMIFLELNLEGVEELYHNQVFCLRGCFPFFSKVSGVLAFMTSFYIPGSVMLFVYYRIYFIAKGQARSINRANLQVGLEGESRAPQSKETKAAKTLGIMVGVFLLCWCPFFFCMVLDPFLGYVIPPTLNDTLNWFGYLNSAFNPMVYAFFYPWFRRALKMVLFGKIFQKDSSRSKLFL

Row | SMILES | Ki [1] [µM] | Ki [2] [µM]
1 | CCCCc1cc(C(=O)Nc2ccc([C@H]3CNCCO3)nc2)[nH]n1 [Example 97, 3-Butyl-N-[6-[(2R)-morpholin-2-yl]-3-pyridyl]-1H-pyrazole-5-carboxamide] | 0.0043 | 0.0387
2 | O=C(Nc1ccc([C@@H]2CNCCO2)nc1)c1cccc(C(F)(F)F)c1 [Example 35, N-[6-[(2S)-Morpholin-2-yl]-3-pyridyl]-3-(trifluoromethyl)benzamide] | 0.0056 | 0.0107
3 | O=C(Nc1ccc(Cl)cc1)Nc1ccc(C2CNCCO2)nc1 (racemic) [Example 11, (RS)-1-(4-Chlorophenyl)-3-(6-morpholin-2-yl-3-pyridyl)urea] | 0.0038 | 0.0047
4 | Clc1ccc(Nc2ccc([C@H]3CNCCO3)nc2)cc1 [Example 24, N-(4-Chlorophenyl)-6-[(2R)-morpholin-2-yl]pyridin-3-amine] | 0.0124 | 0.182
5 | FC(F)(F)c1ccc(Nc2ccc([C@@H]3CNCCO3)nc2)cn1 [Example 22, 6-[(2S)-Morpholin-2-yl]-N-[6-(trifluoromethyl)-3-pyridyl]pyridin-3-amine] | 0.0126 | 0.247
6 | Brc1ccc(Nc2ccc([C@H]3CNCCO3)nc2)nc1 [Example 47, N-(5-Bromo-2-pyridyl)-6-[(2R)-morpholin-2-yl]pyridin-3-amine] | 0.0039 | 0.165
7 | O=C(Nc1ccc(C2CNCCO2)nc1)c1cccc(Cl)c1 (racemic) [Example 12, (RS)-3-Chloro-N-(6-morpholin-2-yl-3-pyridyl)benzamide] |  | 0.0889
8 | Clc1ccc(Nc2ccc([C@@H]3CNCCO3)nc2)cc1 [Example 18, N-(4-Chlorophenyl)-6-[(2S)-morpholin-2-yl]pyridin-3-amine] | 0.0015 | 0.043
9 | Cc1cc(C(=O)Nc2ccc([C@@H]3CNCCO3)nc2)nc(C(F)(F)F)n1 [Example 69, (S)-6-Methyl-N-(6-(morpholin-2-yl)pyridin-3-yl)-2-(trifluoromethyl)pyrimidine-4-carboxamide] | 0.0762 | 0.0512
10 | O=C(Nc1ccc([C@@H]2CNCCO2)nc1)c1cccc(Cl)c1 [Example 32, 3-Chloro-N-[6-[(2S)-morpholin-2-yl]-3-pyridyl]benzamide] |  | 0.0338
11 | FC(F)(F)c1cccc(Nc2ccc([C@@H]3CNCCO3)nc2)n1 [Example 30, N-[6-[(2S)-Morpholin-2-yl]-3-pyridyl]-6-(trifluoromethyl)pyridin-2-amine] | 0.0034 | 0.0208
12 | Brc1ccc(Nc2ccc(C3CNCCO3)nc2)cc1 (racemic) [Example 2, (RS)—N-(4-Bromophenyl)-6-morpholin-2-yl-pyridin-3-amine] | 0.0018 | 0.0437
13 | O=C(Nc1ccc([C@@H]2CNCCO2)nc1)c1ccnc(C(F)(F)F)c1 [Example 34, N-[6-[(2S)-Morpholin-2-yl]-3-pyridyl]-2-(trifluoromethyl)pyridine-4-carboxamide] |  | 0.147
14 | O=C(Nc1ccc(C2CNCCO2)nc1)c1ccnc(C(F)(F)F)c1 (racemic) [Example 16, (RS)—N-(6-Morpholin-2-yl-3-pyridyl)-2-(trifluoromethyl)pyridine-4-carboxamide] |  | 0.145

Next, values leading:

Row | Ki [1] [µM] | Ki [2] [µM] | SMILES
15 | 0.0121 | 0.302 | CCc1n[nH]c(C(=O)Nc2ccc([C@@H]3CNCCO3)nc2)c1F [Example 77, 3-Ethyl-4-fluoro-N-[6-[(2S)-morpholin-2-yl]-3-pyridyl]-1H-pyrazole-5-carboxamide]
16 | 0.0373 | 0.685 | CC(C)c1cc(C(=O)Nc2ccc([C@H]3CNCCO3)nc2)[nH]n1 [Example 58, 3-Isopropyl-N-[6-[(2R)-morpholin-2-yl]-3-pyridyl]-1H-pyrazole-5-carboxamide]
17 | 0.007 | 0.0146 | CCCc1n[nH]c(C(=O)Nc2ccc([C@@H]3CNCCO3)nc2)c1Cl [Example 39, 4-Chloro-N-[6-[(2S)-morpholin-2-yl]-3-pyridyl]-3-propyl-1H-pyrazole-5-carboxamide]
18 |  | 0.066 | CCOc1n[nH]c(C(=O)Nc2ccc(C3CNCCO3)nc2)c1Cl (racemic) [Example 74, (RS)-4-Chloro-3-ethoxy-N-(6-morpholin-2-yl-3-pyridyl)-1H-pyrazole-5-carboxamide]
19 |  | 1.1 | Fc1cc(Nc2ccc(Cl)cn2)cnc1C1CNCCO1 (racemic) [Example 110, (RS)—N-(5-Chloro-2-pyridyl)-5-fluoro-6-morpholin-2-yl-pyridin-3-amine]
20 |  | 0.0225 | O=C(Nc1ccc([C@H]2CNCCO2)nc1)c1[nH]nc(OCC(F)(F)F)c1Cl [Example 101, 4-Chloro-N-[6-[(2R)-morpholin-2-yl]-3-pyridyl]-3-(2,2,2-trifluoroethoxy)-1H-pyrazole-5-carboxamide]
21 |  | 0.137 | CCOc1n[nH]c(C(=O)Nc2ccc([C@@H]3CNCCO3)nc2)c1Cl [Example 106, 4-Chloro-3-ethoxy-N-[6-[(2S)-morpholin-2-yl]-3-pyridyl]-1H-pyrazole-5-carboxamide]
22 |  | 0.122 | FC(F)(F)c1ccc(Nc2cnc(C3CNCCO3)c(Cl)c2)nc1 (racemic) [Example 103, (RS)-5-Chloro-6-morpholin-2-yl-N-[5-(trifluoromethyl)-2-pyridyl]pyridin-3-amine]
23 | 0.0241 |  | CCCc1n[nH]c(C(=O)Nc2cnc(C3CNCCO3)c(Cl)c2)c1Cl (racemic) [Example 108, (RS)-4-Chloro-N-(5-chloro-6-morpholin-2-yl-3-pyridyl)-3-propyl-1H-pyrazole-5-carboxamide]
24 |  | 0.283 | O=C(Nc1ccc([C@H]2CNCCO2)nc1)c1ccnc(C(F)(F)F)c1 [Example 54, N-[6-[(2R)-Morpholin-2-yl]-3-pyridyl]-2-(trifluoromethyl)pyridine-4-carboxamide]
25 |  | 0.123 | CCOc1n[nH]c(C(=O)Nc2ccc([C@H]3CNCCO3)nc2)c1Cl [Example 100, 4-Chloro-3-ethoxy-N-[6-[(2R)-morpholin-2-yl]-3-pyridyl]-1H-pyrazole-5-carboxamide]
26 |  | 0.0922 | O=C(Nc1ccc([C@H]2CNCCO2)nc1)c1cccc(Cl)c1 [Example 52, 3-Chloro-N-[6-[(2R)-morpholin-2-yl]-3-pyridyl]benzamide]
27 |  | 0.0176 | O=C(Nc1ccc([C@@H]2CNCCO2)nc1)c1[nH]nc(OCC(F)(F)F)c1Cl [Example 105, 4-Chloro-N-[6-[(2S)-morpholin-2-yl]-3-pyridyl]-3-(2,2,2-trifluoroethoxy)-1H-pyrazole-5-carboxamide]
28 |  | 0.0133 | O=C(Nc1ccc(C2CNCCO2)nc1)c1[nH]nc(OCC(F)(F)F)c1Cl (racemic) [Example 75, (RS)-4-Chloro-N-(6-morpholin-2-yl-3-pyridyl)-3-(2,2,2-trifluoroethoxy)-1H-pyrazole-5-carboxamide]

Reference: patent US9840501B2, “Morpholin-pyridine derivatives” (Hoffmann-La Roche Inc., priority 2014, dated 2017)
